In PMC4450870 (Pain, 2015):

Tests used:
Assay type in all cases: cell-based
[1] = biological target: KCNQ2 (Rattus norvegicus, UniProt O88943, R198A); experiment: whole-cell voltage clamp, CHO cells
[2] = biological target: KCNQ2 (Rattus norvegicus, UniProt O88943); experiment: whole-cell voltage clamp, CHO cells
[3] = biological target: KCNQ2/KCNQ3 (Rattus norvegicus, UniProt O88943+O88944); experiment: whole-cell patch clamp, transfected CHO cells; settings: activator, −10 mV test potential, room temperature, bath pH 7.4
Chain of KCNQ2/KCNQ3 (O88943 whole entry): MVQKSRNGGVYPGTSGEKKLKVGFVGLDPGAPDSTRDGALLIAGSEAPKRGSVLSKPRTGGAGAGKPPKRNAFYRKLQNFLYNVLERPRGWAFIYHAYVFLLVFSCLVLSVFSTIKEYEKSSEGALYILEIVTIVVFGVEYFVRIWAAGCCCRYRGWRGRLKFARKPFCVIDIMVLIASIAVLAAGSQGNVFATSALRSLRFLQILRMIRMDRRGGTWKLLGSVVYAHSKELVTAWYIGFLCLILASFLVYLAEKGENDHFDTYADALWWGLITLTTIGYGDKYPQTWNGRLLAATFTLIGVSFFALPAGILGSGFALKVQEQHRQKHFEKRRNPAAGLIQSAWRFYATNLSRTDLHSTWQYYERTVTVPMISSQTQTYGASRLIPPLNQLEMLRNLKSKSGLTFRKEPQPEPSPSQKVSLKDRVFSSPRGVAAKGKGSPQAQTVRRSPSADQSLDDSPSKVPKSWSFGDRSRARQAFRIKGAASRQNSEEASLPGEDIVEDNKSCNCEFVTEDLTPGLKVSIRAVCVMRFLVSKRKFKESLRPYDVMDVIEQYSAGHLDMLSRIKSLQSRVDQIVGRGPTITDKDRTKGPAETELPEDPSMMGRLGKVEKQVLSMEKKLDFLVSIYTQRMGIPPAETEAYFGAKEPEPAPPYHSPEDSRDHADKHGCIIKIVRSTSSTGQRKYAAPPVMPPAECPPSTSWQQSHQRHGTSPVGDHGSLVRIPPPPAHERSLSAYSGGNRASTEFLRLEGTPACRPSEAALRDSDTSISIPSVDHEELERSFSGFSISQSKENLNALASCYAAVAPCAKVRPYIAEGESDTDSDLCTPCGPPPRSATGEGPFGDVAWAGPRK
Chain of KCNQ2/KCNQ3 (O88944 whole entry): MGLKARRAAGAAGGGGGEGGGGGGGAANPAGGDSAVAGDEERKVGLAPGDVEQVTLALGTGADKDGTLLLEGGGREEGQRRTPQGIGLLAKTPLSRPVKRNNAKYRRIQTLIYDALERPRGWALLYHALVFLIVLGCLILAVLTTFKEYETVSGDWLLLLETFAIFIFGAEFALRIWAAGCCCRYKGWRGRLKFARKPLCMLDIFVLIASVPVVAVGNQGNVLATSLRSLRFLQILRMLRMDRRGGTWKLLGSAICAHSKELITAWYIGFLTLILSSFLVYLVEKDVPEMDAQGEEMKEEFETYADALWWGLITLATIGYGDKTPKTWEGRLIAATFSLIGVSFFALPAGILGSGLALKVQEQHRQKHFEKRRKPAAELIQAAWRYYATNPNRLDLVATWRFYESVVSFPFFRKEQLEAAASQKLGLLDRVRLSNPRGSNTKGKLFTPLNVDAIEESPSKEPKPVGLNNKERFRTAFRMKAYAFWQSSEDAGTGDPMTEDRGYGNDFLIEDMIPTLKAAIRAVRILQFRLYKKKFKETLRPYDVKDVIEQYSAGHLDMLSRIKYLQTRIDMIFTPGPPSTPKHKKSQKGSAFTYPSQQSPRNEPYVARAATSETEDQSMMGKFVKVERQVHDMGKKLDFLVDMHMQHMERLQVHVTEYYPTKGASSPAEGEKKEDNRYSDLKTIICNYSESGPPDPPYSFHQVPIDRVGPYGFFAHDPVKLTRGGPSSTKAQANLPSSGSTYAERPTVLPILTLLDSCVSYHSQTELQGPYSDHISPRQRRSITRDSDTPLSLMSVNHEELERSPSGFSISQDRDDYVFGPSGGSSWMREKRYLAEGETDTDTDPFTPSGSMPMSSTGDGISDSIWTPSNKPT

Chain of KCNQ2 (Rattus norvegicus, UniProt O88943, R198A) (O88943 whole entry R198A): as the sequence (O88943 whole entry) above, with R198A counted along it
Chain of KCNQ2 (Rattus norvegicus, UniProt O88943) (O88943 whole entry): as the sequence (O88943 whole entry) above

CCc1oc2ccccc2c1C(=O)c1cc(Br)c(O)c(Br)c1 [benzbromarone]
EC50 [1]: 28.2 ± 1.32 µM | EC50 [2]: 4.32 ± 1.4 µM | fold increase of outward current at 10 μM [3]: ~ 1.64 ± 0.08 fold
